Data as given in ChEMBL document CHEMBL1146743, “Three new cyclostellettamines, which inhibit histone deacetylase, from a marine sponge of the genus Xestospongia” (Bioorg Med Chem Lett, 2004).
pIC50: −log10 of the molar value.

Legend:
HeLa = test: Cytotoxicity against human cervix carcinoma (HeLa) cell line; assay type: functional, cell-based
P388 = test: Cytotoxicity against mouse leukemia (P388) cell line; assay type: functional, cell-based
3Y1 cell line = test: Inhibitory activity against rat fibroblast (3Y1) cell line; assay type: functional, cell-based
Histone deacetylase = test: Inhibitory activity against histone deacetylase (HDAC); assay type: protein assay, Homo sapiens

IC50 (Histone deacetylase) | Compound | pIC50 (HeLa) | pIC50 (P388) | pIC50 (3Y1 cell line)
30000 nM | C1=C/CCCCCC[n+]2cccc(c2)CCCCCCCCCCCCC[n+]2cccc(c2)CCCCCC/1.O=C([O-])C(F)(F)F.O=C([O-])C(F)(F)F | 5.74 | 5.89 | 5.49
61000 nM | C1=C/CCCC[n+]2cccc(c2)CCCCCCCCCCCC[n+]2cccc(c2)CCCCCC/1.O=C([O-])C(F)(F)F.O=C([O-])C(F)(F)F | 5.74 | 5.68 | 5.14
80000 nM | C1=C/CCC[n+]2cccc(c2)CCCCCCCCCCCC[n+]2cccc(c2)CCCCCC/1.O=C([O-])C(F)(F)F.O=C([O-])C(F)(F)F | 5.55 | 5.57 | 4.96
17000 nM | C1=C/CCCCCC[n+]2cccc(c2)CCCCCCCCCCCC[n+]2cccc(c2)CCCCCC/1.O=C([O-])C(F)(F)F.O=C([O-])C(F)(F)F | 6.22 | 5.89 | 5.37
